Test results: PubChem BioAssay (NCI)
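48-hour exposure; five concentrations; linearly interpolated endpoints. TGI: total growth inhibition.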

Tests used:
Assay in all cases: NCI tumour cell line growth inhibition, 48 h
[1] = tested on: KM12 colon
[2] = tested on: OVCAR-5 ovarian
[3] = tested on: HCC-2998 colon
[4] = tested on: HOP-62 NSCLC
[5] = tested on: A498 renal
[6] = tested on: 786-0 renal
[7] = tested on: HL-60(TB) leukemia
[8] = tested on: MCF7 breast
[9] = tested on: A549 NSCLC
[10] = tested on: CCRF-CEM leukemia
[11] = tested on: MOLT-4 leukemia
[12] = tested on: SK-MEL-28 melanoma
[13] = tested on: TK-10 renal
[14] = tested on: ACHN renal
[15] = tested on: SK-OV-3 ovarian
[16] = tested on: U251 CNS
[17] = tested on: LOX IMVI melanoma
[18] = tested on: HOP-92 NSCLC
[19] = tested on: HS 578T breast
[20] = tested on: SF-295 CNS
[21] = tested on: OVCAR-3 ovarian
[22] = tested on: BT-549 breast
[23] = tested on: MDA-N
[24] = tested on: UACC-257 melanoma
[25] = tested on: EKVX NSCLC
[26] = tested on: CAKI-1 renal
[27] = tested on: MDA-MB-231 breast
[28] = tested on: OVCAR-8 ovarian
[29] = tested on: PC-3 prostate
[30] = tested on: SN12C renal
[31] = tested on: MALME-3M melanoma
[32] = tested on: SK-MEL-5 melanoma
[33] = tested on: NCI-H522 lung
[34] = tested on: IGROV1 ovarian
[35] = tested on: COLO 205 colon
[36] = tested on: HCT-116 colon
[37] = tested on: OVCAR-4 ovarian
[38] = tested on: UO-31 renal
[39] = tested on: SF-268 CNS
[40] = tested on: UACC-62 melanoma
[41] = tested on: MDA-MB-435
[42] = tested on: HCT-15 colon
[43] = tested on: SR leukemia
[44] = tested on: NCI-H226 lung
[45] = tested on: NCI-H23 lung
[46] = tested on: DU-145 prostate
[47] = tested on: SK-MEL-2 melanoma
[48] = tested on: T-47D breast
[49] = tested on: RXF 393 renal
[50] = tested on: NCI-H460 lung
[51] = tested on: SF-539 CNS
[52] = tested on: M14 melanoma
[53] = tested on: HT29 colon
[54] = tested on: SW-620 colon
[55] = tested on: NCI/ADR-RES ovarian
[56] = tested on: SNB-75 CNS
[57] = tested on: SNB-19 CNS
[58] = tested on: RPMI-8226 leukemia
[59] = tested on: K-562 leukemia

In the case of CCOC(=O)CCc1ccc(NC(=O)/C=C/c2ccc([N+](=O)[O-])o2)cc1, the TGI [1] was 4.43 µM, the TGI [2] was 6.4 µM and the TGI [3] was 7.61 µM. For the same compound, the TGI [4] was 11 µM, the TGI [5] was 7.27 µM and the TGI [6] was 1720 nM. It also gave a TGI [7] of 481 nM, a TGI [8] of 32.4 µM and a TGI [9] of 15.1 µM. For the same compound, the TGI [10] was 957 nM, the TGI [11] was 547 nM and the TGI [12] was 3.39 µM. For the same compound, the TGI [13] was 4.07 µM, the TGI [14] was 2730 nM and the TGI [15] was over 100 µM. It also gave a TGI [16] of 6.42 µM, a TGI [17] of 1540 nM and a TGI [18] of 50.7 µM. The TGI [19] was over 100 µM, the TGI [20] was 28.7 µM and the TGI [21] was 2880 nM. It also gave a TGI [22] of 4.79 µM, a TGI [23] of 2950 nM and a TGI [24] of 2710 nM. The TGI [25] was over 100 µM, the TGI [26] was 6.54 µM and the TGI [27] was 3.94 µM. It also gave a TGI [28] of 2280 nM, a TGI [29] of over 29.9 µM and a TGI [30] of 4.26 µM. It also gave a TGI [31] of 3.14 µM, a TGI [32] of 3.49 µM and a TGI [33] of 548 nM. It also gave a TGI [34] of over 31.1 µM, a TGI [35] of 5.29 µM and a TGI [36] of 2010 nM. For the same compound, the TGI [37] was over 100 µM, the TGI [38] was 3.08 µM and the TGI [39] was 7.63 µM. It also gave a TGI [40] of over 20.5 µM, a TGI [41] of 845 nM and a TGI [42] of 4.05 µM. The TGI [43] was 475 nM, the TGI [44] was 25.5 µM and the TGI [45] was 3.33 µM. The TGI [46] was 6.39 µM, the TGI [47] was 4.82 µM and the TGI [48] was 40.8 µM. The TGI [49] was 2750 nM, the TGI [50] was 4.78 µM and the TGI [51] was 3.99 µM. For the same compound, the TGI [52] was 2430 nM, the TGI [53] was 3.43 µM and the TGI [54] was 2310 nM. It also gave a TGI [55] of 5.37 µM, a TGI [56] of 11.2 µM and a TGI [57] of over 71.6 µM.

COc1cc(C(=O)OC2CC34CCNC35CC(OC5(OC)C2O)c2cc3c(cc24)OCO3)ccc1O (stereo not given) gave a TGI [1] of over 100 µM, a TGI [2] of over 100 µM and a TGI [3] of over 100 µM. It also gave a TGI [4] of over 100 µM, a TGI [5] of over 100 µM and a TGI [6] of over 100000 nM. For the same compound, the TGI [7] was over 100000 nM, the TGI [8] was over 100 µM and the TGI [58] was over 100 µM. The TGI [9] was over 100 µM, the TGI [10] was over 100000 nM and the TGI [11] was over 100000 nM. The TGI [12] was over 100 µM, the TGI [13] was over 100 µM and the TGI [14] was over 100000 nM. For the same compound, the TGI [15] was over 100 µM, the TGI [16] was over 100 µM and the TGI [17] was over 100000 nM. It also gave a TGI [18] of over 100 µM, a TGI [19] of over 100 µM and a TGI [20] of over 100 µM. It also gave a TGI [21] of over 100000 nM, a TGI [22] of over 100 µM and a TGI [23] of over 100000 nM. For the same compound, the TGI [24] was over 100000 nM, the TGI [25] was over 100 µM and the TGI [26] was over 100 µM. For the same compound, the TGI [27] was over 100 µM, the TGI [28] was over 100000 nM and the TGI [29] was over 100 µM. The TGI [30] was over 100 µM, the TGI [31] was over 100 µM and the TGI [32] was over 100 µM. For the same compound, the TGI [33] was over 100000 nM, the TGI [34] was over 100 µM and the TGI [35] was over 100 µM. It also gave a TGI [36] of over 100000 nM, a TGI [37] of over 100 µM and a TGI [39] of over 100 µM. The TGI [40] was over 100 µM, the TGI [59] was over 100 µM and the TGI [41] was over 100000 nM. For the same compound, the TGI [42] was over 100 µM, the TGI [43] was over 100000 nM and the TGI [44] was over 100 µM. It also gave a TGI [45] of over 100 µM, a TGI [46] of over 100 µM and a TGI [47] of over 100 µM. It also gave a TGI [48] of over 100 µM, a TGI [49] of over 100000 nM and a TGI [50] of over 100 µM. The TGI [51] was over 100 µM, the TGI [52] was over 100000 nM and the TGI [53] was over 100 µM. It also gave a TGI [54] of over 100000 nM, a TGI [55] of over 100 µM and a TGI [56] of over 100 µM. It also gave a TGI [57] of over 100 µM.
